Read-outs that look alike come from different tables or passages of the source.
Assays:
CYPDI = test: Postemergence herbicidal safening in direct seeded rice, visual injury on weed; type: in vivo; conditions: alone, after 3 weeks
ORYSA (rice) = test: Postemergence herbicidal safening in direct seeded rice, visual injury; conditions: for ‘M202’ ORYSA Visual Injury (%) Obs: Safener Alone, 560 g ai/ha; for ‘M202’ ORYSA Visual Injury (%) Obs / Visual Injury (%) ‘Lemont’ ORYSA Obs: after 3 weeks; for Visual Injury (%) ‘Lemont’ ORYSA Obs: alone
Source text: A=observed efficacy of active ingredient A at the same concentration as used in the mixture.
B=observed efficacy of active ingredient B at the same concentration as used in the mixture.

SEBEX = test: Postemergence herbicidal safening in direct seeded rice, visual injury on weed; type: in vivo; conditions: alone, after 3 weeks
ECHCO = test: as above; type: in vivo; conditions: alone, after 3 weeks
weed test plant species = test: Herbicidal safening in transplanted paddy rice, visual injury on weeds; type: in vivo; conditions: after 3 weeks; for Visual Injury (%) CYPDI Obs: Cyperus difformis; for Visual Injury (%) MOOVA Obs: Monochoria vaginalis; for Visual Injury (%) SCPJU Obs: Scirpus juncoides
Protocol: (§1) Evaluation of Herbicidal Safening in Transplanted Paddy Rice
(§2) The prepared mud was dispensed in 250 mL aliquots into 480 mL non-perforated plastic pots with a surface area of 91.6 cm^2 leaving a headspace of 3 cm in each pot. Rice seeds were planted in Sun Gro MetroMix 306 planting mixture, which typically has a pH of 6.0 to 6.8 and an organic matter content of about 30 percent, in plastic plug trays. Seedlings at the second or third leaf stage of growth were transplanted into 650 mL of mud contained in 960 mL non-perforated plastic pots with a surface area of 91.6 cm^2 four days prior to herbicide application. The paddy was created by filling the 3 cm headspace of the pots with water. […] Nutrients were added as Osmocote (17:6:10, Nitrogen:Phosphorus:Potassium (N:P:K)+minor nutrients) at 2 grams (g) per cup.
(§3) For technical grade compounds and safeners, a weighed amount, determined by the highest rate to be tested, was placed in an individual 120 mL glass vial and was dissolved in 20 mL of acetone to obtain concentrated stock solutions. […] The concentrated stock solutions obtained were diluted with 20 mL of acetone. Applications were made by injecting an appropriate amount of the stock solution into the aqueous layer of the paddy. […] All treated plant material received the same concentration of acetone and crop oil concentrate.

transplanted paddy rice [1] = test: Herbicidal safening in transplanted paddy rice, visual injury; type: in vivo, Oryza sativa; conditions: after 3 weeks; for ‘M202’ ORYSA Visual Injury (%) Obs: safener 1120 g ae/ha alone
Protocol: as §1, §2, §3

transplanted paddy rice [2] = test: Safening activity of herbicide mixtures in transplanted paddy rice; type: in vivo, Oryza sativa
Protocol: as §2, §3
Forms of compound 1 were applied on an acid equivalent basis.

Clc1cc(Cl)nc(-c2ccccc2)n1 [Fenclorim, 4,6-dichloro-2-phenylpyrimidine]
6.7%: ‘M202’ ORYSA Visual Injury (%) Obs (ORYSA (rice))
0%: Visual Injury (%) CYPDI Obs (CYPDI; 35 g ai/ha) | Visual Injury (%) CYPDI Obs (CYPDI; 70 g ai/ha) | Visual Injury (%) CYPDI Obs (CYPDI; 140 g ai/ha) | Visual Injury (%) CYPDI Obs (CYPDI; 280 g ai/ha) | Visual Injury (%) ‘Lemont’ ORYSA Obs (ORYSA (rice); 35 g ai/ha) | Visual Injury (%) ‘Lemont’ ORYSA Obs (ORYSA (rice); 70 g ai/ha) | Visual Injury (%) ‘Lemont’ ORYSA Obs (ORYSA (rice); 140 g ai/ha) | Visual Injury (%) ‘Lemont’ ORYSA Obs (ORYSA (rice); 280 g ai/ha) | Visual Injury (%) SEBEX Obs (SEBEX; 35 g ai/ha) | Visual Injury (%) SEBEX Obs (SEBEX; 70 g ai/ha) | Visual Injury (%) SEBEX Obs (SEBEX; 140 g ai/ha) | Visual Injury (%) SEBEX Obs (SEBEX; 280 g ai/ha) | Visual Injury (%) ECHCO Obs (ECHCO; 35 g ai/ha) | Visual Injury (%) ECHCO Obs (ECHCO; 70 g ai/ha) | Visual Injury (%) ECHCO Obs (ECHCO; 140 g ai/ha) | Visual Injury (%) ECHCO Obs (ECHCO; 280 g ai/ha) | Visual Injury (%) CYPDI Obs (weed test plant species; safener 70 g ai/ha alone) | Visual Injury (%) CYPDI Obs (weed test plant species; safener 140 g ai/ha alone) | Visual Injury (%) CYPDI Obs (weed test plant species; safener 280 g ai/ha alone) | Visual Injury (%) MOOVA Obs (weed test plant species; safener 70 g ai/ha alone) | Visual Injury (%) MOOVA Obs (weed test plant species; safener 140 g ai/ha alone) | Visual Injury (%) MOOVA Obs (weed test plant species; safener 280 g ai/ha alone)

COC(=O)c1c(Cl)nn(C)c1S(=O)(=O)NC(=O)Nc1nc(OC)cc(OC)n1 [Halosulfuron-methyl]
10%: ORYSA Visual Injury (%) ‘Wells’ Obs (direct seeded rice; partner 26 g/ha alone)
15%: ORYSA Visual Injury (%) ‘M202’ Obs (direct seeded rice; partner 52 g/ha alone)
0%: ORYSA Visual Injury (%) ‘M202’ Obs (direct seeded rice; partner 26 g/ha alone)

CCOC(=O)C1=NOC(c2ccccc2)(c2ccccc2)C1 [Isoxadifen-ethyl, ethyl 4,5-dihydro-5,5-diphenyl-3-isoxazole-carboxylate]
5%: Visual Injury (%) ‘Lemont’ ORYSA Obs (ORYSA (rice); 35 g ai/ha) | Visual Injury (%) ‘Lemont’ ORYSA Obs (ORYSA (rice); 140 g ai/ha)
10%: Visual Injury (%) ‘Lemont’ ORYSA Obs (ORYSA (rice); 70 g ai/ha)
0%: Visual Injury (%) CYPDI Obs (CYPDI; 17.5 g ai/ha) | Visual Injury (%) CYPDI Obs (CYPDI; 35 g ai/ha) | Visual Injury (%) CYPDI Obs (CYPDI; 70 g ai/ha) | Visual Injury (%) CYPDI Obs (CYPDI; 140 g ai/ha) | Visual Injury (%) ‘Lemont’ ORYSA Obs (ORYSA (rice); 17.5 g ai/ha) | Visual Injury (%) SEBEX Obs (SEBEX; 17.5 g ai/ha) | Visual Injury (%) SEBEX Obs (SEBEX; 35 g ai/ha) | Visual Injury (%) SEBEX Obs (SEBEX; 70 g ai/ha) | Visual Injury (%) SEBEX Obs (SEBEX; 140 g ai/ha) | Visual Injury (%) ECHCO Obs (ECHCO; 17.5 g ai/ha) | Visual Injury (%) ECHCO Obs (ECHCO; 35 g ai/ha) | Visual Injury (%) ECHCO Obs (ECHCO; 70 g ai/ha) | Visual Injury (%) ECHCO Obs (ECHCO; 140 g ai/ha) | Visual Injury (%) SCPJU Obs (weed test plant species; safener 140 g ai/ha alone) | Visual Injury (%) SCPJU Obs (weed test plant species; safener 280 g ai/ha alone) | Visual Injury (%) SCPJU Obs (weed test plant species; safener 560 g ai/ha alone) | Visual Injury (%) ECHCG Obs (weed test plant species; safener 140 g ai/ha alone) | Visual Injury (%) ECHCG Obs (weed test plant species; safener 280 g ai/ha alone) | Visual Injury (%) ECHCG Obs (weed test plant species; safener 560 g ai/ha alone) | Visual Injury (%) ‘M202’ ORYSA Obs (transplanted paddy rice [1]; safener 140 g ai/ha alone) | Visual Injury (%) ‘M202’ ORYSA Obs (transplanted paddy rice [1]; safener 280 g ai/ha alone) | Visual Injury (%) ‘M202’ ORYSA Obs (transplanted paddy rice [1]; safener 560 g ai/ha alone) | ‘M202’ ORYSA Visual Injury (%) Obs (transplanted paddy rice [1])

CCOC(=O)C1=NN(c2ccc(Cl)cc2Cl)C(C)(C(=O)OCC)C1 (centres unmarked) [Mefenpyr-diethyl]
0%: ORYSA Visual Injury (%) ‘Clearfield’ Obs (ORYSA (rice); safener 140 g ai/ha alone) | ORYSA Visual Injury (%) ‘Lemont’ Obs (ORYSA (rice); safener 140 g ai/ha alone) | ‘M202’ ORYSA Visual Injury (%) Obs (transplanted paddy rice [1])
10%: ORYSA Visual Injury (%) ‘Cocodrie’ Obs (ORYSA (rice); safener 140 g ai/ha alone) | ORYSA Visual Injury (%) ‘M202’ Obs (ORYSA (rice); safener 140 g ai/ha alone)
0.0%: ‘M202’ ORYSA Visual Injury (%) Obs (ORYSA (rice))

CNc1cnn(-c2cccc(C(F)(F)F)c2)c(=O)c1Cl [Norflurazon]
15%: ORYSA Visual Injury (%) ‘M202’ Obs (direct seeded rice; partner 70 g/ha alone)

O=c1c(Cl)c[nH]c(Cl)c1Cl [Pyriclor]
0%: Visual Injury (%) ‘M202’ ORYSA Obs (transplanted paddy rice [2]; partner 140 g/ha alone)

CS(=O)(=O)c1ccc(C(=O)C2C(=O)CCCC2=O)c(Cl)c1 [Sulcotrione]
99%: ORYSA Visual Injury (%) ‘Wells’ Obs (direct seeded rice; partner 280 g/ha alone)
10%: Visual Injury (%) ‘M202’ ORYSA Obs (transplanted paddy rice [2]; partner 280 g/ha alone)

From US8916498B2, “Safening 6-(trisubstituted phenyl)-4-amino-2-pyridinecarboxylate herbicide injury on direct seeded and transplanted paddy rice” (priority 2008, dated 2014)
